Results as given in patent publication US12331068B2, “Compositions and methods for inhibiting CD73” (Peloton Therapeutics, Inc., priority 2018, dated 2025).

How the values were obtained:
Human CD73 = molecular target: T1, Human CD73 (Homo sapiens, UniProt P21589); assay: CD73 Enzyme Assay (EnzChek PNP/MESG kinetic readout of AMP hydrolysis); assay type: biochemical; conditions: 0.25 nM hCD73, 25 μM AMP; read-out: CD73 Enzyme Assay IC50
T1 construct: purchased R&D Systems; host or cells: CHO cells
T1 sequence (P21589 27-549): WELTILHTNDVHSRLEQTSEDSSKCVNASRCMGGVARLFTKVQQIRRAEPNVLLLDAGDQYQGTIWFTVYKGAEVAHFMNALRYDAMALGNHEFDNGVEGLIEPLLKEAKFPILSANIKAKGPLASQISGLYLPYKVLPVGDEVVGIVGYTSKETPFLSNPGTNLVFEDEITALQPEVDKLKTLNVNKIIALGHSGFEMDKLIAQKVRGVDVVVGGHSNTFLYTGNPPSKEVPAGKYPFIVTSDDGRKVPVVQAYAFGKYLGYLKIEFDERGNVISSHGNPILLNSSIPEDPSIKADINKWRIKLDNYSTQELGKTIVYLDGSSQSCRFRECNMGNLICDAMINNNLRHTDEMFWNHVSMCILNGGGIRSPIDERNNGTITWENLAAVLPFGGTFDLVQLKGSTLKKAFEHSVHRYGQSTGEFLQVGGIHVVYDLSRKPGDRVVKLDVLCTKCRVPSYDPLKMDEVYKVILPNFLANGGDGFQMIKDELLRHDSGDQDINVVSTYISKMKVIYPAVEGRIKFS
Procedure, shortened: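 Compounds tested as 15-point, 3-fold dilution series (300 μM to 0.0002 μM) in DMSO. Kinetic absorbance at 360 nm read every minute for 10–20 min, initial velocity taken from the linear portion.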

[1] = molecular target: T2, CD73 on U138 human neuroglioma cells (Homo sapiens, UniProt P21589); assay: CD73 Cell-Based Assay (inorganic phosphate from AMP, malachite green); conditions: AMP substrate, 2 hours at 37° C., read-out: CD73 Cell-Based assay IC50
T2 construct: U138 cells were obtained from ATCC and cultured in DMEM with 10% FBS; host or cells: U138 human neuroglioma cells
T2 sequence (P21589 27-549): T1 sequence (P21589 27-549)
Procedure, shortened: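 U138 cells, seeded the day before at 2500 per well, were washed and given AMP substrate (200 μM in the added mixture, before dilution into the buffer) together with compound. After 2 h at 37 °C in 5% CO2, inorganic phosphate in the supernatant was measured with malachite green.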

Structure (SMILES)	IC50 (Human CD73) [nM]	IC50 [1] [nM]
N#Cc1c(Cl)nc2c(ncn2[C@@H]2O[C@H](COP(=O)(O)CP(=O)(O)O)[C@@H](O)[C@H]2O)c1N1CC2CC2C1 (stereo partly drawn) [Compound 63]	< 10	< 10
C[C@H](Nc1c(C#N)c(Cl)nc2c1cnn2[C@@H]1O[C@H](CS(=O)(=O)CP(=O)(O)O)[C@@H](O)[C@H]1O)c1ccccc1F [Compound 199]	< 10	< 10
C[C@H](Nc1c(C#N)c(Cl)nc2c1cnn2[C@@H]1O[C@H](CS(=O)(=O)CP(=O)(O)O)[C@@H](O)[C@H]1O)c1ccc(F)cc1 [Compound 184, (((((2S,3S,4R,5R)-5-(6-chloro-5-cyano-4-(((S)-1-(4-fluorophenyl)ethyl)amino)-1H-pyrazolo[3,4-b]pyridin-1-yl)-3,4-dihydroxytetrahydrofuran-2-yl)methyl)sulfonyl)methyl)phosphonic acid]	< 10	< 10
N#Cc1nc2c(ccn2[C@@H]2O[C@H](CS(=O)(=O)CP(=O)(O)O)[C@@H](O)[C@H]2O)c(NC2CCCC2)c1Cl [Compound 210]	< 10	< 10
C[C@@H](Nc1c(C#N)c(Cl)nc2c1ccn2[C@@H]1O[C@H](COP(=O)(O)CP(=O)(O)O)[C@@H](O)[C@@H]1F)c1ccc(F)cc1 [Compound 229]	< 10	< 10
N#Cc1c(Cl)nc2c(ccn2[C@@H]2O[C@H](COCP(=O)(O)O)[C@@H](O)[C@H]2O)c1NC1CC2CC2C1 (stereo partly drawn) [Compound 26]	< 10	< 10
N#Cc1c(Cl)nc2c(ccn2[C@@H]2O[C@H](COCP(=O)(O)O)[C@@H](O)[C@H]2O)c1N1CC[C@H](F)C1 [Compound 60]	< 10	< 10
N#Cc1nc2c(ccn2[C@@H]2O[C@H](CS(=O)(=O)CP(=O)(O)O)[C@@H](O)[C@H]2O)c(NC2CCC(F)(F)CC2)c1Cl [Compound 137]	< 10	< 10
C[C@@H](Nc1c(C#N)c(Cl)nc2c1cnn2[C@@H]1O[C@H](COP(=O)(O)CP(=O)(O)O)[C@@H](O)[C@H]1O)c1ccc(C#N)cc1 [Compound 249]	< 10	< 10
N#Cc1c(Cl)nc2c(ccn2[C@@H]2O[C@H](CS(=O)(=O)CP(=O)(O)O)[C@@H](O)[C@H]2O)c1N[C@H]1C[C@@H](F)C1 [Compound 149]	< 10	< 10
N#Cc1c(Cl)nc2c(ncn2[C@@H]2O[C@H](COCP(=O)(O)O)[C@@H](O)[C@H]2O)c1N1C[C@@H](F)[C@H](F)C1 [Compound 93]	< 10	< 10
N#Cc1c(Cl)nc2c(ncn2[C@@H]2O[C@H](COCP(=O)(O)O)[C@@H](O)[C@H]2O)c1N1CC[C@@H](F)C1 [Compound 83]	< 10	< 10
C[C@H](Nc1c(C#N)c(Cl)nc2c1cnn2[C@@H]1O[C@H](CS(=O)(=O)CP(=O)(O)O)[C@@H](O)[C@H]1O)c1cccc(F)c1 [Compound 180]	< 10	< 10
N#Cc1c(Cl)nc2c(cnn2[C@@H]2O[C@H](COP(=O)(O)CP(=O)(O)O)[C@@H](O)[C@@H]2F)c1N1CCC(F)(F)C1 [Compound 95, (((((2R,3R,4S,5R)-5-(6-chloro-5-cyano-4-(3,3-difluoropyrrolidin-1-yl)-1H-pyrazolo[3,4-b]pyridin-1-yl)-4-fluoro-3-hydroxytetrahydrofuran-2-yl)methoxy)(hydroxy)phosphoryl)methyl)phosphonic acid]	< 10	< 10
N#Cc1c(Cl)nc2c(cnn2[C@@H]2O[C@H](COCP(=O)(O)O)[C@@H](O)[C@H]2O)c1N1CC2CCCC2C1 (stereo partly drawn) [Compound 61]	< 10	< 10
C[C@H](Nc1c(C#N)c(Cl)nc2c1ccn2[C@@H]1O[C@H](COP(=O)(O)CP(=O)(O)O)[C@@H](O)[C@H]1O)c1ccc(C#N)cc1 [Compound 223]	< 10	< 10
N#Cc1c(Cl)nc2c(ccn2[C@@H]2O[C@H](COCP(=O)(O)O)[C@@H](O)[C@H]2O)c1NC1CC(F)(F)C1 [Compound 10]	< 10	< 10
C[C@@H](Nc1c(C#N)c(Cl)nc2c1cnn2[C@@H]1O[C@H](CS(=O)(=O)CP(=O)(O)O)[C@@H](O)[C@H]1O)c1ccc(F)cc1 [Compound 191]	< 10	< 10
N#Cc1nc2c(ccn2[C@@H]2O[C@H](CS(=O)(=O)CP(=O)(O)O)[C@@H](O)[C@H]2O)c(NC2CC3(CC3)C2)c1Cl [Compound 221]	< 10	< 10
N#Cc1c(Cl)nc2c(ncn2[C@@H]2O[C@H](CS(=O)(=O)CP(=O)(O)O)[C@@H](O)[C@H]2O)c1NC1CCC(F)(F)CC1 [Compound 126]	< 10	< 10

Structure (SMILES)	IC50 (Human CD73) [nM]	IC50 [1] [nM]
C[C@@H](Nc1c(C#N)c(Cl)nc2c1cnn2[C@@H]1O[C@H](CS(=O)(=O)CP(=O)(O)O)[C@@H](O)[C@H]1O)c1cccc(C#N)c1 [Compound 193]	< 10	< 10
N#Cc1c(Cl)nc2c(ccn2[C@@H]2O[C@H](CS(=O)(=O)CP(=O)(O)O)[C@@H](O)[C@H]2O)c1NC1CCC1 [Compound 19]	< 10	< 10
N#Cc1c(Cl)nc2c(cnn2[C@@H]2O[C@H](COP(=O)(O)CP(=O)(O)O)[C@@H](O)[C@H]2O)c1NC1CC(F)(F)C1 [Compound 322]	< 10	< 10
C[C@@H](Nc1c(C#N)c(Cl)nc2c1cnn2[C@@H]1O[C@H](CS(=O)(=O)CP(=O)(O)O)[C@@H](O)[C@H]1O)c1ccccc1F [Compound 183]	< 10	< 10
N#Cc1c(Cl)nc2c(ccn2[C@@H]2O[C@H](COCP(=O)(O)O)[C@@H](O)[C@H]2O)c1N[C@@H]1CCC(F)(F)C1 [Compound 46]	< 10	< 10
N#Cc1cnc2c(ccn2[C@@H]2O[C@H](COP(=O)(O)CP(=O)(O)O)[C@@H](O)[C@H]2O)c1NC1CCCC1 [Compound 48]	< 10	< 10
N#Cc1c(Cl)nc2c(ccn2[C@@H]2O[C@H](COCP(=O)(O)O)[C@@H](O)[C@H]2O)c1N1CC(F)(F)C1 [Compound 65]	< 10	< 10
N#Cc1c(Cl)nc2c(c(F)cn2[C@@H]2O[C@H](COCP(=O)(O)O)[C@@H](O)[C@H]2O)c1N1CCC(F)(F)C1 [Compound 151]	< 10	< 10
C[C@@H](Nc1c(C#N)c(Cl)nc2c1cnn2[C@@H]1O[C@H](CS(=O)(=O)CP(=O)(O)O)[C@@H](O)[C@H]1O)c1ccc(C#N)cc1 [Compound 192]	10 to 100	10 to 100
N#Cc1c(Cl)nc2c(cnn2[C@@H]2O[C@H](COCP(=O)(O)O)[C@@H](O)[C@H]2O)c1NC1CC(F)C1 (stereo partly drawn) [Compound 89]	< 10	< 10
C[C@H](Nc1c(C#N)c(Cl)nc2c1ncn2[C@@H]1O[C@H](COP(=O)(O)CP(=O)(O)O)[C@@H](O)[C@H]1O)c1ccccc1F [Compound 242]	< 10	< 10
N#Cc1nc2c(ccn2[C@@H]2O[C@H](COCP(=O)(O)O)[C@@H](O)[C@H]2O)c(N2C[C@@H](F)[C@@H](F)C2)c1Cl [Compound 103]	< 10	< 10
N#Cc1c(Cl)nc2c(ccn2[C@@H]2O[C@H](CS(=O)(=O)CP(=O)(O)O)[C@@H](O)[C@H]2O)c1N1CC2CCCC2C1 (stereo partly drawn) [Compound 21]	< 10	< 10
N#Cc1c(Cl)nc2c(ncn2[C@@H]2O[C@H](CS(=O)(=O)CP(=O)(O)O)[C@@H](O)[C@H]2O)c1NC1CC2CC2C1 (stereo partly drawn) [Compound 127]	< 10	< 10
N#Cc1c(Cl)nc2c(ccn2[C@@H]2O[C@H](COCP(=O)(O)O)[C@@H](O)[C@H]2O)c1N1C[C@@H](F)[C@H](F)C1 [Compound 68]	< 10	< 10
N#Cc1c(Cl)nc2c(ncn2[C@@H]2O[C@H](COCP(=O)(O)O)[C@@H](O)[C@H]2O)c1N1CC2CC2C1 (stereo partly drawn) [Compound 58]	< 10	< 10
N#Cc1c(Cl)nc2c(ccn2[C@@H]2O[C@H](CS(=O)(=O)CP(=O)(O)O)[C@@H](O)[C@H]2O)c1N[C@H]1CCC(F)(F)C1 [Compound 5]	< 10	< 10
N#Cc1nc2c(ccn2[C@@H]2O[C@H](COCP(=O)(O)O)[C@@H](O)[C@H]2O)c(NC2CCCC2)c1Cl [Compound 101]	< 10	< 10
Cc1nc2c(ccn2[C@@H]2O[C@H](COP(=O)(O)CP(=O)(O)O)[C@@H](O)[C@H]2O)c(NC2CCCC2)c1C#N [Compound 49]	< 10	< 10
